Measured values from US10266544B2, “Aryl substituted aminomethyl spectinomycin analogs as antibacterial agents” (ST. JUDE CHILDREN'S RESEARCH HOSPITAL, INC., priority 2013, dated 2019).
Values after ≈ are worked out from the molar mass of the structure shown. Counter-ions that a name gives are not always drawn. Like-named read-outs stand apart in the source and are kept apart here.

Key:
Type in all cases: cell-based
[1] = tested on: Bacillus anthracis, Sterne 34F2; assay: microbe, parasite or virus in culture; conditions: STERNE34F2, read-out: MIC B.a.
[2] = tested on: Bacillus subtilis (ATCC 23857); assay: MIC determination, microbroth dilution; conditions: ATCC23857; Bacillus subtilis (ATCC 23857); read-out: MIC B.s.
[3] = tested on: Enterococcus faecalis (ATCC 33186); assay: MIC determination, microbroth dilution; conditions: ATCC33186; Enterococcus faecalis (ATCC 33186); read-out: MIC E.f.
[4] = tested on: Staphylococcus aureus (ATCC 29213); assay: MIC determination, microbroth dilution; conditions: ATCC29213; Staphylococcus aureus (ATCC 29213); read-out: MIC S.a.
[5] = tested on: MRSA, Staphylococcus aureus (NRS70); assay: MIC determination, microbroth dilution; conditions: Staphylococcus aureus (NRS70); read-out: MIC MRSA
[6] = tested on: Streptococcus pneumoniae (R6); assay: MIC determination, microbroth dilution
[7] = tested on: Streptococcus pyogenes (ATCC 700294); assay: MIC determination, microbroth dilution; conditions: ATCC700294; Streptococcus pyogenes (ATCC 700294); read-out: MIC S. py.
[8] = tested on: M. tuberculosis clinical isolates; assay: microbe, parasite or virus in culture; conditions: Mycobacterium tuberculosis, H37RV, read-out: MIC H37Rv
[9] = tested on: acinetobacter baumannii (ATCC 19606); assay: MIC determination, microbroth dilution; conditions: ATCC19606
[10] = tested on: Burkholderia cepacia (ATCC 25416); assay: MIC determination, microbroth dilution; conditions: Burkholderia cepacia, ATCC25416, read-out: MIC B.c., Burkholderia cepacia (ATCC 25416)
[11] = tested on: Escherichia coli (ATCC 700926); assay: MIC determination, microbroth dilution
Protocol: MICs were determined using the microbroth dilution method according to Clinical Laboratory Standards Institute (CLSI; National, C. F. C. L. S., Methods for Dilution Antimicrobial Susceptibility Tests for Bacteria Grow aerobically-Seventh Edition: Approved Standard M7-A7, CLSI, Wayne, Pa., USA, 2008) and were read by visual inspection. Two fold serial dilutions of antibiotic in 100 μL of the appropriate broth media were first prepared in 96-well round bottom microtiter plates (Nalge Nunc International, Rochester, N.Y., USA). An equivalent volume (100 μL) of bacterial broth inocula containing approximately 10^5 bacterial cfu/mL was added to each well to give final concentrations of drug starting at 200 μg/mL and the plates were incubated aerobically at 37° C. M. tuberculosis microtiter plates were incubated for 7 days and all other strains were incubated overnight. After incubations, in all cases the MIC was recorded as the lowest concentration of drug that prevented bacterial growth.

E. coli K12 ΔtolC = assay: microbe, parasite or virus in culture; conditions: Escherichia coli, read-out: MIC E.c. Δtolc
[12] = tested on: Klebsiella pneumoniae (ATCC 33495); assay: MIC determination, microbroth dilution; conditions: ATCC33495
[13] = tested on: Pseudomonas aeruginosa (PA01); assay: MIC determination, microbroth dilution
[14] = tested on: Proteus mirabilis (ATCC 25933); assay: MIC determination, microbroth dilution; conditions: ATCC25933
[15] = tested on: Proteus vulgaris (ATCC 33420); assay: MIC determination, microbroth dilution; conditions: ATCC33420
[16] = tested on: Stenotrophomonas maltophilia (ATCC 13637); assay: MIC determination, microbroth dilution; conditions: ATCC13637; Stenotrophomonas maltophilia (ATCC 13637); read-out: MIC S.m.
[17] = tested on: Streptococcus pneumoniae clinical isolates representing several serotypes; assay: MIC determination, Streptococcus pneumoniae panel of clinical isolates (Table 7); conditions: Streptococcus pneumoniae
[18] = Streptococcus pneumoniae (R6), read-out: MIC S. pn.
[19] = ATCC700926, Escherichia coli (ATCC 700926), read-out: MIC E.c.

Row | SMILES | MIC [1] [µg/mL] | MIC [2] [µg/mL] | MIC [4] [µg/mL] | MIC [5] [µg/mL] | MIC [6, 18] [µg/mL] | MIC [7] [µg/mL] | MIC [9] [µg/mL] | MIC [10] [µg/mL] | MIC (E. coli K12 ΔtolC) [µg/mL] | MIC [12] [µg/mL] | MIC [13] [µg/mL] | MIC [14] [µg/mL] | MIC [15] [µg/mL] | MIC [16] [µg/mL] | MIC [11, 19] [µg/mL] | also measured
1 | CN[C@@H]1[C@H](O)[C@H](NC)C2O[C@]3(O)C(OC2[C@H]1O)O[C@H](C)C[C@@]3(O)CNCc1ccc2c(c1)OCO2 (stereo partly drawn) [compound 36] | > 200 | 12.5 (≈ 25.1 µM) | 100 (≈ 201 µM) | > 200 | 25 (≈ 50.2 µM) | 25 (≈ 50.2 µM) | – | – | – | – | – | – | – | – | – | MIC [3]: 100 µg/mL (≈ 201 µM); MIC [8]: 50 µg/mL (≈ 100 µM)
2 | CN[C@@H]1[C@H](O)[C@H](NC)C2O[C@]3(O)C(OC2[C@H]1O)O[C@H](C)C[C@@]3(O)CNCc1cccc(C(F)(F)F)c1 (stereo partly drawn) [compound 50] | > 200 | 12.5 (≈ 24 µM) | 50 (≈ 95.9 µM) | 50 (≈ 95.9 µM) | 3.13 (≈ 6 µM) | 1.56 (≈ 2.99 µM) | – | – | – | – | – | – | – | – | – | MIC [3]: 25 µg/mL (≈ 47.9 µM)
3 | CN[C@@H]1[C@H](O)[C@H](NC)[C@H]2O[C@]3(O)[C@H](O[C@@H]2[C@H]1O)O[C@H](C)C[C@@]3(O)CNCc1cncnc1 [compound 66, 3′-(R)-3′-[(pyrimidin-5-ylmethyl)aminomethyl]dihydrospectinomycin tetrahydrobromide] | 100 | 200 | > 200 | > 200 | 0.8 | 100 | > 200 | > 200 | 25 to 50 | 100 to 200 | > 200 | > 200 | > 200 | 100 | – | MIC ([11]; Escherichia coli, ATCC700926, read-out: MIC E.c.): 50 µg/mL
4 | CN[C@@H]1[C@H](O)[C@H](NC)[C@H]2O[C@]3(O)[C@H](O[C@@H]2[C@H]1O)O[C@H](C)C[C@@]3(O)CNCc1cnccn1 [compound 67, 3′-(R)-3′-[(pyrazin-2-ylmethyl)aminomethyl]dihydrospectinomycin tetrahydrobromide] | 200 | 100 | > 200 | > 200 | 6.3 | 100 | > 200 | > 200 | 25 to 50 | 100 | > 200 | > 200 | > 200 | 100 | 50 to 100 | –
5 | CN[C@@H]1[C@H](O)[C@H](NC)[C@H]2O[C@]3(O)[C@H](O[C@@H]2[C@H]1O)O[C@H](C)C[C@@]3(O)CNCc1ccc(SC)cc1 [compound 68, 3′-(R)-3′-[(4-(methylthio)benzylaminomethyl)]dihydrospectinomycin trihydrobromide] | 25 | 25 | 25 | 50 | 1.6 | 3.1 | > 200 | > 200 | 12.5 | 100 to 200 | 200 | > 200 | > 200 | 25 | 50 | –
6 | CN[C@@H]1[C@H](O)[C@H](NC)[C@H]2O[C@]3(O)[C@H](O[C@@H]2[C@H]1O)O[C@H](C)C[C@@]3(O)CNCc1ccc(S(C)(=O)=O)cc1 [compound 69, 3′-(R)-3′-[(4-(methylsulfonyl)benzylaminomethyl)]dihydrospectino-mycin trihydrobromide] | > 200 | > 200 | > 200 | > 200 | 100 | 100 | > 200 | > 200 | 12.5 to 25 | > 200 | > 200 | > 200 | > 200 | > 200 | 50 to 100 | –
7 | CN[C@@H]1[C@H](O)[C@H](NC)[C@H]2O[C@]3(O)[C@H](O[C@@H]2[C@H]1O)O[C@H](C)CC3(O)CN (stereo partly drawn) [mSPC, 3′-aminomethyl-3′-hydroxy spectinomycin, reference compound] | – | – | – | – | – | – | – | – | – | – | – | – | – | – | – | MIC ([6]; Streptococcus pneumoniae, S. pneumoniae R6, Drug Susceptible, read-out: MIC R6): 50 µg/mL (≈ 138 µM); MIC ([17]; BAA1407, S. pneumoniae BAA-1407, Macrolide Resistant, read-out: MIC BAA-1407): 200 µg/mL (≈ 550 µM); MIC ([17]; S. pneumoniae A66.1x, Drug Susceptible, read-out: MIC A66.1x): 50 µg/mL (≈ 138 µM); MIC ([17]; S. pneumoniae BHN97x, Drug Susceptible, read-out: MIC BHN97x): 50 µg/mL (≈ 138 µM); MIC ([17]; S. pneumoniae D39X, Drug Susceptible, read-out: MIC D39X): 100 µg/mL (≈ 275 µM); MIC ([17]; S. pneumoniae Daw7, PenG Resistant, read-out: MIC Daw7): 100 µg/mL (≈ 275 µM); MIC ([17]; S. pneumoniae Daw8, PenG Resistant, read-out: MIC Daw8): 100 µg/mL (≈ 275 µM); MIC ([17]; S. pneumoniae Daw9, PenG Resistant, read-out: MIC Daw9): 50 µg/mL (≈ 138 µM); MIC ([17]; S. pneumoniae Daw62, PenG Resistant, read-out: MIC Daw62): 100 µg/mL (≈ 275 µM); MIC ([17]; S. pneumoniae Daw64, PenG Resistant, read-out: MIC Daw64): 100 µg/mL (≈ 275 µM); MIC ([17]; S. pneumoniae OVA6, Macrolide Resistant, read-out: MIC OVA6): 50 µg/mL (≈ 138 µM); MIC ([17]; S. pneumoniae T4X, Drug Susceptible, read-out: MIC T4X): 50 µg/mL (≈ 138 µM)
